Source: patent US11147816B2, “Composition for inducing differentiation and protection of neural stem cells and method for inducing neuro-regeneration using the same composition” (GENUV Inc., priority 2016, dated 2021)

How the values were obtained:
5XFAD mouse = experiment: NeuN immunohistochemical staining, number of neurons in the Alzheimer's disease mouse model (Example 8)
Procedure: For the BrdU staining to be performed later, 50 mg/kg of BrdU (Sigma, cat#. B5002) was added to the daily dose for the last 5 days. The mouse was then anesthetized and perfused with PBS for the extraction of the brain. […] The other half of the hemispheres plus another 3 extracted mice brains per group were placed in 10% formalin solution at 4° C. for 1 day, which was then followed with the proceeding steps to allow good penetration of paraffin into the brain tissue. The brain tissues were immersed sequentially in 70%, 80%, 95%, 100% alcohol for 1 hour each for dehydration, then immersed in xylene 3 times for 1 hour each for clearing, and embedded in paraffin by placing in liquid paraffin 2 times for 1 hour each. After these procedures, the paraffin-embedded brain tissue (paraffin block) was cut into 5 μm sections, mounted on slides, and stored at room temperature. Prior to immunohistochemical staining, the tissues on the slides were rehydrated by sequentially immersing in xylene, 100%, 90%, 80%, 70%, 50% alcohol,and then water for 5 minutes each. […] The next day, the slides were incubated with anti-rabbit antibodies (Vector lab, cat#. PI-1000) at room temperature for 1 hour and then stained with DAB staining for the analysis of the neuronal distribution in the brain.
FIG. 12b indicates the number of NeuN stained cells counted and represented as the percentage of the number of cells per unit area in the somatosensory cortex layer 5 region. Area samples were taken from 3 areas per mouse, 3 mice per group, so the number of cells counted was from a total of 9 areas.
FIG. 13b indicates the number of NeuN stained cells counted and represented as the percentage of the number of cells per unit area in the motor cortex layer 5 region. Area samples were taken from 6 areas per mouse, 3 mice per group, so the number of cells counted was from a total of 18 areas.
FIG. 14b indicates the number of NeuN stained cells counted and represented as the percentage of the number of cells per unit area in the dotted area of the hippocampal subiculum shown in FIG. 14a. Area samples were taken from 3 areas per mouse, 3 mice per group, so the number of cells counted was from a total of 9 areas.

[1] = tested on: mouse adult neural stem cells; experiment: qRT-PCR of relative mRNA expression of neuronal markers in mouse adult NSC (Example 4-2); assay type: cell-based; details: 10 nM for 2 days
[2] = tested on: mouse embryonic neural stem cells; experiment: qRT-PCR of relative mRNA expression of neuronal markers in mouse embryonic NSC (Examples 4-1, 4-2, 6); assay type: cell-based; details: 1 nM
Procedure: Isopropanol (Ducsan, GyunggiDo, Korea, cat#. 67-63-0) was added and mixed for RNA isolation, then centrifuged again to remove the supernatant and obtain the pellet. The RNA pellet was resuspended in 75% ethanol (Ducsan, cat#. 64-17-15), centrifuged, and the supernatant removed. The pellet was then resuspended in sterilized triple distilled water to obtain the mRNA, incubated for 10 minutes at 55° C., and stored at −80° C.
Sterilized triple distilled water, […] oligo dT, and 1 mM dNTP were added to the RNA and incubated for 5 minutes at 65° C. This was followed by the addition of 5X First-strand buffer, 10 mM DTT, and M-MLV reverse transcriptase and incubated at 42° C. for 1 hour, then at 72° C. for 15 minutes, and at 4° C. for 30 minutes. The synthesized cDNA was stored at −20° C.
The term relative mRNA expression level signifies that in order to normalize each group's total RNA level, the mRNA expression level of each differentiation marker is divided by the expression level of GAPDH whose expression level is fairly constant across cells, and then the values of each test material are compared with those of the controls (undifferentiated NSC) in each group.

[3] = tested on: mouse embryonic neural stem cells; experiment: Immunocytochemistry analysis, Tuj1 and DAPI staining (Example 3); assay type: cell-based; details: 10 nM, 4 days
Procedure: Tuj1 (Neuron specific class III beta-tubulin) is a neuron specific marker protein, which was conjugated to rhodamine to show fluorescent red, while DAPI binds to the cell DNA and stains the cell nuclei fluorescent blue. […] The medium was removed and the cells were washed with PBS. After fixing with 10% formaldehyde (Sigma cat#. HT501128) at room temperature for 10 minutes, they were washed again with PBS. They were permeabilized with 0.2% Triton X-100 (Sigma, cat#. 93443) at room temperature for 15 minutes, washed with PBS, and incubated with 10% BSA (Sigma, cat#. A2153)+1% normal goat serum (Vector lab, Burlingame, Calif., cat#. S1000) at room temperature for 1 hour. […] The solution was removed, washed with PBS, and incubated at room temperature for 1 hour with the secondary antibody (rhodamine-conjugated antibody) diluted in 1% BSA+1% normal goat serum at a ratio of 1:200. Then, the cells were washed with PBS, incubated with 5 μg/ml DAPI (Sigma, cat#. D9542) for 5 minutes, washed with PBS again, and mounted on a slide glass for analysis with a fluorescent microscope.

[4] = 0.1 mg/kg and 1.0 mg/kg orally daily for 28 days, vs vehicle
[5] = 10 nM, 25 nM, 100 nM for 2 days

CC(=O)Nc1cccc(-n2c(=O)n(C3CC3)c(=O)c3c(Nc4ccc(I)cc4F)n(C)c(=O)c(C)c32)c1 [trametinib, N-(3-{3-cyclopropyl-5-[(2-fluoro-4-iodophenyl)amino]-6,8-dimethyl-2,4,7-trioxo-3,4,6,7-tetrahydropyrido[4,3-d]pyrimidin-1(2H)-yl}phenyl)acetamide]
number of NeuN stained neurons, hippocampal subiculum (5XFAD mouse; [4]): significant increase in the number of neurons
number of NeuN stained neurons, motor cortex layer 5 (5XFAD mouse; [4]): significant increase in the number of neurons
number of NeuN stained neurons, somatosensory cortex layer 5 (5XFAD mouse; [4]): significant increase in the number of neurons stained with NeuN
dose showing neural stem cell differentiation-inducing activity (5XFAD mouse; 5xFAD mouse experiments): 0.1 mg/kg/day
mRNA expression of cholinergic neuron marker ChAT [1]: increased the expression
mRNA expression of dopaminergic neuron marker TH [1]: increased the expression
mRNA expression of neuronal marker Tuj1 [1]: increased the expression
differentiation-inducing effect (Tuj1, TH mRNA) [2]: exerted its differentiation-inducing effect
mRNA expression of GABAergic neuron marker Gad1 [2, 5]: increased with the increase in concentration of the trametinib added
mRNA expression of cholinergic neuron marker ChAT [2, 5]: increased with the increase in concentration of the trametinib added
mRNA expression of dopaminergic neuron marker TH [2, 5]: increased with the increase in concentration of the trametinib added
mRNA expression of motor neuron marker Isl1 [2, 5]: increased with the increase in concentration of the trametinib added
neuron differentiation by Tuj1 staining [3]: showed increasingly active differentiation activity
